Experimental data: paper PMC10762177, “Novel betulin derivatives as multidrug reversal agents targeting P-glycoprotein” (Scientific Reports, 2024)
Values joined by “and” are separate entries in the source; they are usually repeats but may differ in a detail not shown here. Identical values can stand only once.

How the values were obtained:
[1] = biological target: T1, P-gp (Homo sapiens, UniProt P08183); parameters: MDR phenotype mainly characterized by the overexpression of ABCB1/P-gp; endogenous in cells; host or cells: K562/Dox (formerly Lucena 1), drug-selected and kept under 60 nM Dox; parental K562 used as the low-P-gp control; details: cited from earlier work
[2] = tested on: K562/Dox cells; assay: MTT colorimetric assay, cytotoxicity on resistant K562/Dox; assay type: cell-based; details: Homo sapiens, K562, 48 h, MTT, 48 h, K562/Dox; read-out: IC50 K562/Dox
Description: This colorimetric technique is based on the ability of viable cells to capture MTT and reduce it through the mitochondrial enzyme succinic dehydrogenase to its insoluble form, formazan crystals. The target compounds dissolved in DMSO (0.5% v/v as final concentration which was non-toxic to cells) at a maximum concentration of 50 µM were exposed to 5 × 10^4 cells distributed in a 96-well plate and incubated for 48 h. […] After this time, the plate was centrifuged at 2000 rpm for 10 min, and 100 µL of DMSO was added to dissolve the formazan crystals formed. Absorbance (Abs) was read at a wavelength of 595 nm in an iMark microplate reader (Bio-Rad, USA). The percentages of cytotoxicity were determined as compared to DMSO treated control cells, which were considered 100% viable as showing the same level of growth as the untreated cells.

[3] = tested on: K562 cells; assay: MTT colorimetric assay, cytotoxicity on sensitive K562; assay type: cell-based; details: Homo sapiens, K562, 48 h, MTT, 48 h, K562
Description: This colorimetric technique is based on the ability of viable cells to capture MTT and reduce it through the mitochondrial enzyme succinic dehydrogenase to its insoluble form, formazan crystals. […] After this time, the plate was centrifuged at 2000 rpm for 10 min, and 100 µL of DMSO was added to dissolve the formazan crystals formed. Absorbance (Abs) was read at a wavelength of 595 nm in an iMark microplate reader (Bio-Rad, USA).

[4] = biological target: T1, P-gp; assay: Rhodamine 123 intracellular accumulation assay in K562/Dox (flow cytometry); details: for FAR (fluorescence activity ratio): Rho123, K562/Dox; for MEC (minimum effective concentration): Rho123 accumulation, K562/Dox

T1 sequence (P08183 whole entry): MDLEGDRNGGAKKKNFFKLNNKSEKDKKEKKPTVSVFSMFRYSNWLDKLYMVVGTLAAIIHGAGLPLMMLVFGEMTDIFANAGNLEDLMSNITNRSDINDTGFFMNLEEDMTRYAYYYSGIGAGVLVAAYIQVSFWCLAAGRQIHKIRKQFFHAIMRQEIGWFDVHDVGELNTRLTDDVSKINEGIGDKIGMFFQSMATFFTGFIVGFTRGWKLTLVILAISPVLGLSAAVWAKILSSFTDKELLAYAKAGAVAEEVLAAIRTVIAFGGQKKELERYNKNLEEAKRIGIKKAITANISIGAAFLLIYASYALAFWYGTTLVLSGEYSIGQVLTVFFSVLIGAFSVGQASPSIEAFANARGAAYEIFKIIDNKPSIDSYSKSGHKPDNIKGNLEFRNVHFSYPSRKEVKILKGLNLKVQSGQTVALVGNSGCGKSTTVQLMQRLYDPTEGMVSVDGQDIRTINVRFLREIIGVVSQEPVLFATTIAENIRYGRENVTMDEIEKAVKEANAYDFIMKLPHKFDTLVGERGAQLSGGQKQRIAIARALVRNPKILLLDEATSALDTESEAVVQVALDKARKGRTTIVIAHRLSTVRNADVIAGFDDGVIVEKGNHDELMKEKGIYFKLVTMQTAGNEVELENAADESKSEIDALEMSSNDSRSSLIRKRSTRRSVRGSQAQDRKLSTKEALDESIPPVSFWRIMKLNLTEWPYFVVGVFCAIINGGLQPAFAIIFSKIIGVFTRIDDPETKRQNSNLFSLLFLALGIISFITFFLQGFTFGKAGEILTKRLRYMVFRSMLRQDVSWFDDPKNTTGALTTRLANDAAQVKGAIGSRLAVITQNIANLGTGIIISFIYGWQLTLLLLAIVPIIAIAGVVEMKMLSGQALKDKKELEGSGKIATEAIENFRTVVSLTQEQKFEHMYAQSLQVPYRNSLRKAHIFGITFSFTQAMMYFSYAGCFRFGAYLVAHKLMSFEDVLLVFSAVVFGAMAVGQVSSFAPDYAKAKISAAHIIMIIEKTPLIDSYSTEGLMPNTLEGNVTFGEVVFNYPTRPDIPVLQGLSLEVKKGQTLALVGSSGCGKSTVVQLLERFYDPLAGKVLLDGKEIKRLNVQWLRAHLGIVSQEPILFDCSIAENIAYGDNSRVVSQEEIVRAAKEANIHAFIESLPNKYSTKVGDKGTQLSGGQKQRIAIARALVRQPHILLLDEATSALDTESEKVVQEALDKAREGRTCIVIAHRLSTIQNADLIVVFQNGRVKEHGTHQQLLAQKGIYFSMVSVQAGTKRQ

Structure (SMILES)	effective concentration, P-gp inhibition [1] [µM]	IC50 [2] [µM]	IC50 [3] [µM]	FAR (fluorescence activity ratio) ([4]; 25 µM)	FAR (fluorescence activity ratio) ([4]; 50 µM)	MEC (minimum effective concentration) [4]
C=C(C)[C@@H]1CC[C@]2(C)CC[C@]3(C)[C@H](CC[C@@H]4[C@@]5(C)CC[C@H](O)C(C)(C)[C@@H]5CC[C@]43C)[C@@H]12 [lupeol]	100	–	–	–	–	–
CC1(C)CC[C@]2(C(=O)O)CC[C@]3(C)C(=CC[C@@H]4[C@@]5(C)CC[C@H](O)C(C)(C)[C@@H]5CC[C@]43C)[C@@H]2C1 [oleanolic acid]	2	–	–	–	–	–
C=C(C)[C@@H]1CC[C@]2(COC(=O)NCCc3ccc(OC)cc3)CC[C@]3(C)[C@H](CC[C@@H]4[C@@]5(C)CC[C@H](O)C(C)(C)[C@@H]5CC[C@]43C)[C@@H]12 [Compound 6e]	–	> 50	> 50	1.04 ± 0.11	1.53 ± 0.09	50 µM and 50.0 µM
C=C(C)[C@@H]1CC[C@]2(COC(=O)c3cc(OC)c(OC)c(OC)c3)CC[C@]3(C)[C@H](CC[C@@H]4[C@@]5(C)CC[C@H](O)C(C)(C)[C@@H]5CC[C@]43C)[C@@H]12 [Compound 3b]	–	> 50	> 50	0.94 ± 0.03	1.06 ± 0.003	50 µM
